Measurements published in ChEMBL document CHEMBL1201862, “PubChem BioAssay data set” (2004).
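Growth conditions: 96-well plates. Treatment: test compound, 48 hours, 5 concentrations. Analysis: linear interpolation between bracketing concentrations; unreached endpoints set to highest concentration. GI50: concentration for 50% inhibition of growth.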 The source made the active and inactive calls. Rule as the data show it: active = GI50 up to about 1.1 µM and inactive = higher.

Tests used:
Test in all cases: NCI-60 cell line screen, 48 h
U-251 = system: U-251
Hs-578T = system: Hs-578T
K562 = system: K562
PC-3 = system: PC-3
IGROV-1 = system: IGROV-1
A549 = system: A549
MDA-MB-435 = system: MDA-MB-435
T47D = system: T47D
OVCAR-5 = system: OVCAR-5
M14 = system: M14
Malme-3M = system: Malme-3M
EKVX = system: EKVX
RPMI-8226 = system: RPMI-8226
OVCAR-8 = system: OVCAR-8
MDA-N = system: MDA-N
CAKI-1 = system: CAKI-1
HCT-116 = system: HCT-116
NCI-H460 = system: NCI-H460
MCF7 = system: MCF7

SMILES	GI50 (U-251)	GI50 (Hs-578T)	GI50 (K562)	GI50 (PC-3)	GI50 (IGROV-1)	GI50 (A549)	GI50 (MDA-MB-435)	GI50 (T47D)	GI50 (OVCAR-5)	GI50 (M14)	GI50 (Malme-3M)	GI50 (EKVX)	GI50 (RPMI-8226)	GI50 (OVCAR-8)	GI50 (MDA-N)	GI50 (CAKI-1)	GI50 (HCT-116)	GI50 (NCI-H460)	GI50 (MCF7)
Nc1ncnc2c1ncn2C1OC(CO)C(O)C1N (centres undefined)	> 100 µM (inactive)	0.08 µM (active)	> 100 µM (inactive)	> 100 µM (inactive)	> 100 µM (inactive)	> 100 µM (inactive)	> 100 µM (inactive)	> 100 µM (inactive)	> 100 µM (inactive)	> 100 µM (inactive)	> 100 µM (inactive)	> 100 µM (inactive)	> 100 µM (inactive)	> 100 µM (inactive)	> 100 µM (inactive)	> 100 µM (inactive)	> 100 µM (inactive)	> 100 µM (inactive)	
CC1(C)CCN2C(=O)C34CCCC3CC21S4 (centres undefined)	> 100 µM (inactive)	> 100 µM (inactive)	> 100 µM (inactive)	> 100 µM (inactive)	> 100 µM (inactive)	> 100 µM (inactive)	> 100 µM (inactive)	> 100 µM (inactive)	> 100 µM (inactive)	> 100 µM (inactive)	> 100 µM (inactive)	> 100 µM (inactive)	> 100 µM (inactive)	> 100 µM (inactive)	> 100 µM (inactive)	> 100 µM (inactive)	> 100 µM (inactive)		> 100 µM (inactive)
CCSc1cc(C(=O)OC)c2n(c1=O)CCCC2	> 100 µM (inactive)	> 100 µM (inactive)		> 100 µM (inactive)	> 100 µM (inactive)	> 100 µM (inactive)	> 100 µM (inactive)	> 100 µM (inactive)	> 100 µM (inactive)	> 100 µM (inactive)	> 100 µM (inactive)	> 100 µM (inactive)		> 100 µM (inactive)	> 100 µM (inactive)	> 100 µM (inactive)	> 100 µM (inactive)		> 100 µM (inactive)
CC1=NN(C(=O)CC(=O)Nc2cccc(C)c2)C(=O)C1/N=N/c1ccc(C(=O)O)cc1 (centres undefined)	> 100 µM (inactive)	> 100 µM (inactive)	> 100 µM (inactive)	> 100 µM (inactive)	> 100 µM (inactive)	> 100 µM (inactive)	> 100 µM (inactive)	> 100 µM (inactive)	> 100 µM (inactive)	> 100 µM (inactive)	> 100 µM (inactive)	> 100 µM (inactive)	> 100 µM (inactive)	> 100 µM (inactive)	> 100 µM (inactive)	> 100 µM (inactive)	> 100 µM (inactive)		> 100 µM (inactive)
COc1ccc(/C(C)=N/NC(=S)N(C)C)c(O)c1	7.83 µM (inactive)	53.1 µM (inactive)		6.4 µM (inactive)	4.31 µM (inactive)	4.52 µM (inactive)	27.7 µM (inactive)	7.48 µM (inactive)	3.42 µM (inactive)	2.72 µM (inactive)		5.41 µM (inactive)	7.74 µM (inactive)		16 µM (inactive)	4.92 µM (inactive)	6.95 µM (inactive)	14 µM (inactive)	
CCC(=O)NC(Nc1ccccc1F)(C(F)(F)F)C(F)(F)F	> 100 µM (inactive)	> 100 µM (inactive)	> 100 µM (inactive)	> 100 µM (inactive)	> 100 µM (inactive)	> 100 µM (inactive)	> 100 µM (inactive)	40.9 µM (inactive)	> 100 µM (inactive)	> 100 µM (inactive)		> 100 µM (inactive)	> 100 µM (inactive)	> 100 µM (inactive)	> 100 µM (inactive)	> 100 µM (inactive)	> 100 µM (inactive)	> 100 µM (inactive)	> 100 µM (inactive)
CCOP(=O)(OCC)C(NC(=O)OCC(Cl)(Cl)Cl)n1nnc(C(=O)OC)c1C(=O)OC (centres undefined)	> 100 µM (inactive)	> 100 µM (inactive)	> 100 µM (inactive)	77.8 µM (inactive)	> 100 µM (inactive)	> 100 µM (inactive)	> 100 µM (inactive)	> 100 µM (inactive)		> 100 µM (inactive)	> 100 µM (inactive)	> 100 µM (inactive)	> 100 µM (inactive)	> 100 µM (inactive)	> 100 µM (inactive)	> 100 µM (inactive)	> 100 µM (inactive)	> 100 µM (inactive)	> 100 µM (inactive)
CSc1ccc(/C=C2\N=C(c3ccccc3)N(/N=C3\C(=O)Nc4ccccc43)C2=O)cc1	> 100 µM (inactive)	> 100 µM (inactive)	> 100 µM (inactive)	> 100 µM (inactive)	> 100 µM (inactive)	> 100 µM (inactive)	> 100 µM (inactive)	> 100 µM (inactive)	> 100 µM (inactive)	> 100 µM (inactive)	> 100 µM (inactive)	38.7 µM (inactive)		88.3 µM (inactive)	> 100 µM (inactive)	> 100 µM (inactive)	> 100 µM (inactive)	> 100 µM (inactive)	> 100 µM (inactive)
O=C1/C(=C/c2ccccc2S)N=C(c2ccccc2)N1c1nc2c(Cl)cc(Cl)cc2s1	23.4 µM (inactive)	23.7 µM (inactive)	23.5 µM (inactive)	23.9 µM (inactive)	20.9 µM (inactive)	21.9 µM (inactive)	21.8 µM (inactive)	31.7 µM (inactive)	18.7 µM (inactive)	25.9 µM (inactive)		11.6 µM (inactive)	21.8 µM (inactive)	22.2 µM (inactive)	18.1 µM (inactive)	32.6 µM (inactive)	17.7 µM (inactive)	27.5 µM (inactive)	22.3 µM (inactive)
CC(=O)c1c(SCCN2CCCCCC2)n(-c2ccccc2)c(=S)n(-c2ccccc2)c1=O	15.9 µM (inactive)	17.7 µM (inactive)	2.61 µM (inactive)	5.26 µM (inactive)	8.3 µM (inactive)	6.82 µM (inactive)	12.9 µM (inactive)	2.31 µM (inactive)	24.4 µM (inactive)	2.15 µM (inactive)	1.51 µM (inactive)	19.2 µM (inactive)	0.384 µM (active)	10.7 µM (inactive)	7.29 µM (inactive)	3.85 µM (inactive)	6.81 µM (inactive)	24.7 µM (inactive)	
COc1ccc(OC)c(C(=O)c2cccc(C(=O)c3cc(OC)ccc3OC)n2)c1	27.4 µM (inactive)	27 µM (inactive)	22.3 µM (inactive)	33.6 µM (inactive)	38.8 µM (inactive)	42.9 µM (inactive)		29.6 µM (inactive)	30.5 µM (inactive)	33.6 µM (inactive)	80 µM (inactive)	41.1 µM (inactive)		50.1 µM (inactive)	17 µM (inactive)	71.8 µM (inactive)	43.9 µM (inactive)	36.3 µM (inactive)	26.5 µM (inactive)
CCCCCC/C=C\CCCCCCCCCc1c(O)c(OC)cc(O)c1CN(C)C	3.73 µM (inactive)	2.7 µM (inactive)	1.73 µM (inactive)	2.96 µM (inactive)	3.18 µM (inactive)	4.04 µM (inactive)	6.64 µM (inactive)	1.76 µM (inactive)	14.5 µM (inactive)	11.4 µM (inactive)		10.7 µM (inactive)	2.44 µM (inactive)	4.06 µM (inactive)	13 µM (inactive)	13.8 µM (inactive)	3.85 µM (inactive)	3.67 µM (inactive)	2.55 µM (inactive)
Nc1ccc(Nc2cc(=O)[nH]c(=O)[nH]2)cc1Cl	> 100 µM (inactive)	> 100 µM (inactive)	> 100 µM (inactive)	> 100 µM (inactive)		> 100 µM (inactive)	> 100 µM (inactive)	> 100 µM (inactive)	> 100 µM (inactive)	> 100 µM (inactive)	> 100 µM (inactive)		> 100 µM (inactive)	> 100 µM (inactive)	> 100 µM (inactive)	> 100 µM (inactive)	> 100 µM (inactive)	> 100 µM (inactive)	> 100 µM (inactive)
CCOC(=O)C1=CNC(C(=O)OCC)C1c1cccn1-c1ccccc1 (centres undefined)	29.6 µM (inactive)	38.6 µM (inactive)	32.8 µM (inactive)	18.8 µM (inactive)	33 µM (inactive)	33.9 µM (inactive)	21.2 µM (inactive)	25.8 µM (inactive)	52.1 µM (inactive)	32.9 µM (inactive)		35.8 µM (inactive)		28.8 µM (inactive)	20 µM (inactive)	32.6 µM (inactive)	23.6 µM (inactive)	29.4 µM (inactive)	31.9 µM (inactive)
FC(F)(F)C1(C(F)(F)F)OC(Cl)(Cl)C(Cl)(Cl)O1	> 10 µM (inactive)	> 10 µM (inactive)		> 10 µM (inactive)	> 10 µM (inactive)	> 10 µM (inactive)	> 10 µM (inactive)	> 10 µM (inactive)	> 10 µM (inactive)	> 10 µM (inactive)	> 10 µM (inactive)	> 10 µM (inactive)		> 10 µM (inactive)	> 10 µM (inactive)	> 10 µM (inactive)	> 10 µM (inactive)	> 10 µM (inactive)	> 10 µM (inactive)
O=S(=O)(O)c1cc(O)c2c(O)c(/N=N/c3cccc4ccccc34)c(S(=O)(=O)O)cc2c1	> 100 µM (inactive)	> 100 µM (inactive)	> 100 µM (inactive)	> 100 µM (inactive)	> 100 µM (inactive)	> 100 µM (inactive)	> 100 µM (inactive)	> 100 µM (inactive)	> 100 µM (inactive)	> 100 µM (inactive)	> 100 µM (inactive)	> 100 µM (inactive)	> 100 µM (inactive)	> 100 µM (inactive)	> 100 µM (inactive)	> 100 µM (inactive)	> 100 µM (inactive)		> 100 µM (inactive)
